Experimental data as given in EP1311486B1, “USES OF THALIPORPHINE OR ITS DERIVATIVES IN TREATMENT OF CARDIAC DISEASES AND PREPARATION OF SAME” (Lotus Pharmaceutical Co., Ltd., priority 2000, dated 2002).

Tested on: plasma LDH
Assay: Plasma LDH release at the end of ischemia or ischemia-reperfusion
Assay type: in vivo, rats
Settings: for LDH (U/L) release, Ischemic / LDH (U/L) release, Reperfused: Operated
Protocol: Myocardial ischemia was performed by a temporary tightening of the silk ligature around the left main coronary artery. Reperfusion was achieved by releasing the tension applied to the ligature (operated groups). Sham operated animals underwent all surgical procedures, apart from the fact that the silk, passing around the left coronary artery, was not tied (sham groups). Animals were infused with a bolus of THP (3.5x10^-7, 3.5x10^-6, 3.5x10^-5 g/kg), L-NAME (N^∞-nitro-L-arginine methyl ester; 1x10^-3 g/kg) or vehicle (dimethyl sulfoxide/ NaCl 0.9%, 1:10^3; v/v) from a jugular vein 15 minutes before coronary occlusion. The coronary artery was occluded for 30 minutes or 5 minutes followed by 30 minutes reperfusion and with the animals then divided randomly in the following groups: (1) sham + vehicle; (2) sham + THP (3.5x10^-5g/kg); (3) operated + vehicle; (4) operated + THP (3.5x10^-7 g/kg); (5) operated + THP (3.5x10^-6 g/kg); (6) operated + THP (3.5x10^-5 g/kg); (7) operated + L-NAME (1x10^-3 g/kg) + THP (3.5x10^-5 g/kg). Before and during the ischemia or reperfusion period, heart rate (HR), blood pressure (BP) and ECG changes were recorded. Ventricular ectopic activity was evaluated according to the diagnostic criteria advocated in the Lambeth Convention. The incidence and duration of ventricular tachyarrhythmias, including ventricular tachycardia (VT) and ventricular fibrillation (VF), in surviving animals was determined. The Mann-Whitney rank-sum test was used to analyze the differences in the duration of VT and VF between vehicle and drug treated groups. The BP and HR changes between vehicle and drug treated rats in the arrhythmia study were analyzed by ANOVA (analysis of variance) followed by Bonferroni's test. The difference in the percentage incidence of VT, VF and mortality rate was analyzed with a Chi-square test. Table 2 Effect of THP on ischemia-induced arrhythmias in the in vivo anesthetized rat
Cellular damage was evaluated by measuring the plasma LDH. Arterial blood samples were drawn from the carotid catheter at the end of ischemia or ischemia-reperfusion, collected in heparinized tubes. The blood was kept at 4°C until it was centrifuged at 2000 xg for 15 minutes. The plasma was recovered and aliquots were used for determination of LDH activity with a commercial kit from Sigma. The deproteinized plasma samples were frozen and kept until analysis. NO was measured by the NO/ozone chemiluminescence technique described in Yanu F. et al., (1997) Clin. Chem. 43:657-662. The difference in plasma NO and LDH were analyzed statistically using unpaired Student's t-test. Table 5 Effects of THP on LDH (U/L) release
The biochemical indicator of cellular damage (LDH release) is determined in ischemia and the ischemia-reperfusion period. Low LDH activity can be seen in the control group (123.6±20.6 U/L) before occlusion. After the occlusion or occlusion-reperfusion, a large increase of the enzyme is found in the plasma of rats given operated-vehicle (500.5±81.4 U/L and 273.7±29.2 U/L, respectively). However, administration of THP attenuates LDH release with a dose-dependent manner during ischemia or ischemia-reperfusion (Table 5).

In the case of `COc1cc2c(cc1OC)-c1c(O)c(OC)cc3c1C(C2)N(C)CC3` (single isomer, unassigned; (+)) [THP, (+)-Thaliporphine], the “LDH (U/L) release, Ischemic” value (THP 3.5x10^-5 g/kg) is reported as 132.2±33.2 U/L, the “LDH (U/L) release, Reperfused” value (THP 3.5x10^-5 g/kg) is reported as 143.8±11.7 U/L and the “LDH (U/L) release, Ischemic” value (THP 3.5x10^-6 g/kg) is reported as 171.7±56.9 U/L. For the same compound, the “LDH (U/L) release, Reperfused” value (THP 3.5x10^-6 g/kg) was 219.6±31.0 U/L, the “LDH (U/L) release, Ischemic” value (THP 3.5x10^-7 g/kg) was 349.5±55.0 U/L and the “LDH (U/L) release, Reperfused” value (THP 3.5x10^-7 g/kg) was 202.2±30.4 U/L. For the same compound, the “LDH (U/L) release, Non-ischemic” value (Sham-operated, THP 3.5x10^-5 g/kg) was 92.6±7.5 U/L.
